Data published in US20030100034A1, “9136, a human aldehyde dehydrogenase family member and uses therefor” (Millennium Pharmaceuticals, Inc., priority 2001, published 2003).

Tested on: 9136 in NCI-H125 cells
Experiment: 9136 expression after 4HT induction of p53ER in NCI-H125 cells
Type: cell-based, human
Method: Total RNA was prepared from various human tissues by a single step extraction method using RNA STAT-60 according to the manufacturer's instructions (TelTest, Inc). Each RNA preparation was treated with DNase I (Ambion) at 37° C. for 1 hour. DNAse I treatment was determined to be complete if the sample required at least 38 PCR amplification cycles to reach a threshold level of fluorescence using β-2 microglobulin as an internal amplicon reference. The integrity of the RNA samples following DNase I treatment was confirmed by agarose gel electrophoresis and ethidium bromide staining. After phenol extraction cDNA was prepared from the sample using the SUPERSCRIPT™ Choice System following the manufacturer's instructions (GibcoBRL). A negative control of RNA without reverse transcriptase was mock reverse transcribed for each RNA sample. Human 9136 expression was measured by TaqMan® & quantitative PCR (Perkin Elmer Applied Biosystems) in cDNA prepared from a variety of normal and diseased (e.g., cancerous) human tissues or cell lines. Probes were designed by PrimerExpress software (PE Biosystems) based on the sequence of the human 9136 gene. Each human 9136 gene probe was labeled using FAM (6-carboxyfluorescein), and the β2-microglobulin reference probe was labeled with a different fluorescent dye, VIC. The differential labeling of the target gene and internal reference gene thus enabled measurement in same well. Forward and reverse primers and the probes for both β2-microglobulin and target gene were added to the TaqMan® Universal PCR Master Mix (PE Applied Biosystems). Although the final concentration of primer and probe could vary, each was internally consistent within a given experiment. A typical experiment contained 200 nM of forward and reverse primers plus 100 nM probe for β-2 microglobulin and 600 nM forward and reverse primers plus 200 nM probe for the target gene. TaqMan matrix experiments were carried out on an ABI PRISM 7700 Sequence Detection System (PE Applied Biosystems). The thermal cycler conditions were as follows: hold for 2 min at 50° C. and 10 min at 95° C., followed by two-step PCR for 40 cycles of 95° C. for 15 sec followed by 60° C. for 1 min.
The following method was used to quantitatively calculate human 9136 gene expression in the various tissues relative to β-2 microglobulin expression in the same tissue. The threshold cycle (Ct) value is defined as the cycle at which a statistically significant increase in fluorescence is detected. A lower Ct value is indicative of a higher mRNA concentration. The Ct value of the human 9136 gene is normalized by subtracting the Ct value of the β-2 microglobulin gene to obtain a ΔCt value using the following formula: ΔCt=[…]−Ctβ-2 microglobulin. Expression is then calibrated against a cDNA sample showing a comparatively low level of expression of the human 9136 gene. The ΔCt value for the calibrator sample is then subtracted from ΔCt for each tissue sample according to the following formula: ΔΔCt=ΔCt-sample−ΔCt-calibrator. Relative expression is then calculated using the arithmetic formula given by 2^−ΔΔCt. Relative expression levels of the target human 9136 gene in each of the tissues tested is then graphically represented as discussed in more detail below.
In addition, a study of the 9136 gene expression levels, with or without introduction of p53 expression, was carried out in several carcinoma cell lines. The p53 tumor suppressor gene has been the subject of intense study for a number of years. […] One of those identified genes is 9136, which, as mentioned earlier, is the human ALDH6 gene.

CC/C(=C(\c1ccc(O)cc1)c1ccc(OCCN(C)C)cc1)c1ccccc1 [4HT]
9136 Expression (0 hr post-4HT induction): 5.82 | 9136 Expression (5 min post-4HT induction): 6.29 | 9136 Expression (20 min post-4HT induction): 5.64 | 9136 Expression (1 hr post-4HT induction): 5.60 | 9136 Expression (3 hr post-4HT induction): 5.83 | 9136 Expression (9 hr post-4HT induction): 5.10 | 9136 Expression (24 hr post-4HT induction): 3.1 | 9136 Expression (48 hr post-4HT induction): 3.03
